Assay results taken from patent publication US11014884B2 (Global Blood Therapeutics, Inc., priority 2018, dated 2021).

target: T1, hemoglobin (Homo sapiens, UniProt P69905); experiment: Whole blood assay: oxygen equilibrium curves (Hemox Analyzer), change in p50; format: cell-based; details: whole blood 20% Hct (1 mM Hb), compound 1 mM, equimolar to hemoglobin, 1 h at 37° C.
T1 construct: from tissue; host or cells: whole blood (red blood cells)
Method: Oxygen equilibrium curves (OECs) were collected using a TCS Hemox Analyzer (TCS Scientific Company, New Hope, Pa., USA) to measure changes in the binding affinity of 02 to Hb. Whole blood was incubated for 1 h at 37° C. with the indicated compounds in an equimolar ratio of hemoglobin to compound and diluted into TES (2-[[1,3-dihydroxy-2-(hydroxymethyl)propan-2-yl]amino]ethanesulfonic acid)/saline buffer prior to measurements. For example, for whole blood at 20% hematocrit [Hct], which corresponds to 1 mM Hb, a compound concentration of 1 mM was used (for example, for compounds 1-53), and the incubated sample diluted 50- to 100-fold. The concentration for compound 54 was 1.7 mM and in equimolar ratio to hemoglobin. The diluted samples were then oxygenated with compressed air within the Hemox Analyzer, and the OECs were collected during deoxygenation as previously described (Guarnone et al., Haematologica, 1995, 80, 426-430). p50 (partial pressure of 02 at which Hb is 50% saturated with 02) values were obtained using a non-linear regression analysis. Percentage change in p50 [Δp50(%)] was calculated as follows: Δp50(%)=[(p50 of control)−p50 with compound)/p50 control]×100.

T1 sequence (P69905 2-142 limits assumed): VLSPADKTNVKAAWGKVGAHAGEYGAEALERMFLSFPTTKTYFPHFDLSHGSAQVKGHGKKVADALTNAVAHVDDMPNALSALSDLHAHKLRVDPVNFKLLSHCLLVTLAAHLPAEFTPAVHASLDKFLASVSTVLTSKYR
T1 sequence (P68871 2-147 partner limits assumed): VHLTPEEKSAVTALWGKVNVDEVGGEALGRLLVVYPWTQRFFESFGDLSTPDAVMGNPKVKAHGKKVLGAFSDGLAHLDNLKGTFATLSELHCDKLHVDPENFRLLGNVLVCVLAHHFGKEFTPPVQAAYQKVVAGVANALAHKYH

Row | SMILES | Delta-p50 (%)
1 | O=Cc1cccc(-c2cccnc2COc2cccc(O)c2C=O)n1 [Compound 32, 2′-[(2-formyl-3-hydroxyphenoxy)methyl]-[2,3′-bipyridine]-6-carbaldehyde] | 50
2 | CCOc1ccc(-c2ncccc2COc2cccc(O)c2C=O)nc1C=O [Compound 45, 5-ethoxy-3′-[(2-formyl-3-hydroxyphenoxy)methyl]-[2,2′-bipyridine]-6-carbaldehyde] | 55.7
3 | O=Cc1c(O)cccc1C(=O)N1CCCC[C@H]1COc1ccc2c(c1C=O)CCO2 [Compound 44, 5-{[(2S)-1-(2-formyl-3-hydroxybenzoyl)piperidin-2-yl]methoxy}-2,3-dihydro-1-benzofuran-4-carbaldehyde] | 34.2
4 | CCOc1cccc(C(=O)N2CCC[C@H]2COc2cccc(O)c2C=O)c1C=O [Compound 52, 2-ethoxy-6-[(2S)-2-[(2-formyl-3-hydroxyphenoxy)methyl]pyrrolidine-1-carbonyl]benzaldehyde] | 75.5
5 | O=Cc1ccc(C(=O)N2CCCC[C@H]2COc2cccc(O)c2C=O)cc1 [Compound 13, 2-{[(2S)-1-(4-formylbenzoyl)piperidin-2-yl]methoxy}-6-hydroxybenzaldehyde] | 45.4
6 | O=Cc1cccc(-c2ccccc2COc2cccc(O)c2C=O)n1 [Compound 24, 6-{2-[(2-formyl-3-hydroxyphenoxy)methyl]phenyl}pyridine-2-carbaldehyde] | 11
7 | Cc1ccc(-c2ncccc2COc2cccc(O)c2C=O)nc1C=O [Compound 41, 3′-[(2-formyl-3-hydroxyphenoxy)methyl]-5-methyl-[2,2′-bipyridine]-6-carbaldehyde] | 29.1
8 | O=Cc1nc(-c2ncccc2COc2cccc(O)c2C=O)ccc1O [Compound 19, 3′-[(2-formyl-3-hydroxyphenoxy)methyl]-5-hydroxy-[2,2′-bipyridine]-6-carbaldehyde] | 11
9 | O=Cc1cc(-c2ccccc2COc2cccc(O)c2C=O)co1 [Compound 18, 4-{2-[(2-formyl-3-hydroxyphenoxy)methyl]phenyl}furan-2-carbaldehyde] | 17
10 | O=Cc1c(O)cccc1OC[C@@H]1CCCCN1C(=O)c1cccc(F)c1C=O [Compound 47, 2-fluoro-6-[(2S)-2-[(2-formyl-3-hydroxyphenoxy)methyl]piperidine-1-carbonyl]benzaldehyde] | 70
11 | COc1cccc(C(=O)N2CCCC[C@H]2COc2cccc(O)c2C=O)c1C=O [Compound 33, 2-[(2S)-2-[(2-formyl-3-hydroxyphenoxy)methyl]piperidine-1-carbonyl]-6-methoxybenzaldehyde] | 84
12 | CC(C)Oc1cccc(C(=O)N2CCCC[C@H]2COc2cccc(O)c2C=O)c1C=O [Compound 40, 2-[(2S)-2-[(2-formyl-3-hydroxyphenoxy)methyl]piperidine-1-carbonyl]-6-(propan-2-yloxy)benzaldehyde] | 72.5
13 | O=Cc1ccc(Cl)cc1C(=O)N1CCCC[C@H]1COc1cccc(O)c1C=O [Compound 16, 4-chloro-2-[(2S)-2-[(2-formyl-3-hydroxyphenoxy)methyl]piperidine-1-carbonyl]benzaldehyde] | 39
14 | O=Cc1ccccc1C(=O)N1CCC[C@H](COc2cccc(O)c2C=O)C1 [Compound 29, 2-{[(3S)-1-(2-formylbenzoyl)piperidin-3-yl]methoxy}-6-hydroxybenzaldehyde] | 82
15 | O=Cc1ncccc1C(=O)N1CCCC[C@H]1COc1cccc(O)c1C=O [Compound 25, 3-[(2S)-2-[(2-formyl-3-hydroxyphenoxy)methyl]piperidine-1-carbonyl]pyridine-2-carbaldehyde] | 4
16 | O=Cc1ccccc1C(=O)N1CCCC[C@@H]1COc1cccc(O)c1C=O [Compound 17, 2-{[(2R)-1-(2-formylbenzoyl)piperidin-2-yl]methoxy}-6-hydroxybenzaldehyde] | 67
17 | O=Cc1ccccc1C(=O)N1CCCCC[C@H]1COc1cccc(O)c1C=O [Compound 37] | 31.5
18 | O=Cc1c(O)cccc1OC[C@@H]1CCCCN1C(=O)c1cccc(Cl)c1C=O [Compound 51, 2-chloro-6-[(2S)-2-[(2-formyl-3-hydroxyphenoxy)methyl]piperidine-1-carbonyl]benzaldehyde] | 65.5
19 | O=Cc1c(O)cccc1OC[C@@H]1CCCN1C(=O)c1cccc(O)c1C=O [Compound 30, 2-[(2S)-2-[(2-formyl-3-hydroxyphenoxy)methyl]pyrrolidine-1-carbonyl]-6-hydroxybenzaldehyde] | 45

Row | SMILES | Delta-p50 (%)
20 | O=Cc1cccc(-c2cnccc2COc2cccc(O)c2C=O)n1 [Compound 31, 4′-[(2-formyl-3-hydroxyphenoxy)methyl]-[2,3′-bipyridine]-6-carbaldehyde] | 3.5
21 | O=Cc1cnccc1C(=O)N1CCCC[C@H]1COc1cccc(O)c1C=O [Compound 53, 4-[(2S)-2-[(2-formyl-3-hydroxyphenoxy)methyl]piperidine-1-carbonyl]pyridine-3-carbaldehyde] | 71.9
22 | CCOc1cccc(C(=O)N2CCCC[C@@H]2COc2cccc(O)c2C=O)c1C=O [Compound 50, 2-ethoxy-6-[(2R)-2-[(2-formyl-3-hydroxyphenoxy)methyl]piperidine-1-carbonyl]benzaldehyde] | 45.3
23 | CCOc1cccc(C(=O)N2CCCC[C@H]2COc2cccc(O)c2C=O)c1C=O [Compound 39, 2-ethoxy-6-[(2S)-2-[(2-formyl-3-hydroxyphenoxy)methyl]piperidine-1-carbonyl]benzaldehyde] | 79.5
24 | O=Cc1cccc(N2C(=O)CC[C@H]2COc2cccc(O)c2C=O)c1 [Compound 5, 2-{[(2S)-1-(3-formylphenyl)-5-oxopyrrolidin-2-yl]methoxy}-6-hydroxybenzaldehyde] | 79
25 | CC1(C)C[C@@H](COc2cccc(O)c2C=O)N(C(=O)c2ccccc2C=O)C1 [Compound 43, 2-{[(2S)-1-(2-formylbenzoyl)-4,4-dimethylpyrrolidin-2-yl]methoxy}-6-hydroxybenzaldehyde] | 70
26 | O=Cc1nc(-c2ncccc2COc2cccc(O)c2C=O)cs1 [Compound 12, 4-{3-[(2-formyl-3-hydroxyphenoxy)methyl]pyridin-2-yl}-1,3-thiazole-2-carbaldehyde] | 2.9
27 | O=Cc1ccccc1C(=O)N1CCC[C@@H](COc2cccc(O)c2C=O)C1 [Compound 26, 2-{[(3R)-1-(2-formylbenzoyl)piperidin-3-yl]methoxy}-6-hydroxybenzaldehyde] | 56
28 | COc1ccc(C=O)c(C(=O)N2CCCC[C@H]2COc2cccc(O)c2C=O)c1 [Compound 15, 2-[(2S)-2-[(2-formyl-3-hydroxyphenoxy)methyl]piperidine-1-carbonyl]-4-methoxybenzaldehyde] | 19
29 | O=Cc1ccccc1N1C(=O)CC[C@H]1COc1cccc(O)c1C=O [Compound 21, 2-{[(2S)-1-(2-formylphenyl)-5-oxopyrrolidin-2-yl]methoxy}-6-hydroxybenzaldehyde] | 23
30 | O=Cc1c(O)cccc1OC[C@@H]1CCCCCN1C(=O)c1cccc(O)c1C=O (stereo in doubt) [Compound 38, 2-{2-[(2-formyl-3-hydroxyphenoxy)methyl]azepane-1-carbonyl}-6-hydroxybenzaldehyde] | 33.8
31 | O=Cc1ccc(C(=O)N2CCC[C@@H](COc3cccc(O)c3C=O)C2)cc1 [Compound 28, 2-{[(3R)-1-(4-formylbenzoyl)piperidin-3-yl]methoxy}-6-hydroxybenzaldehyde] | 45
32 | O=Cc1cccc(C(=O)N2CCC[C@@H](COc3cccc(O)c3C=O)C2)c1 [Compound 27, 2-{[(3R)-1-(3-formylbenzoyl)piperidin-3-yl]methoxy}-6-hydroxybenzaldehyde] | 74
33 | O=Cc1ccc(F)cc1C(=O)N1CCCC[C@H]1COc1cccc(O)c1C=O [Compound 35, 4-fluoro-2-[(2S)-2-[(2-formyl-3-hydroxyphenoxy)methyl]piperidine-1-carbonyl]benzaldehyde] | 70
34 | CCOc1cccc(C(=O)N2CCOC[C@H]2COc2cccc(O)c2C=O)c1C=O [Compound 3, 2-ethoxy-6-[(3S)-3-[(2-formyl-3-hydroxyphenoxy)methyl]morpholine-4-carbonyl]benzaldehyde] | 73.6
35 | O=Cc1c(O)cccc1OC[C@@H]1COCCN1C(=O)c1cccc(O)c1C=O [Compound 4, (S)-2-((4-(2-formyl-3-hydroxybenzoyl)morpholin-3-yl)methoxy)-6-hydroxybenzaldehyde] | 30.9
36 | O=Cc1cccc(C(=O)N2CCC[C@H](COc3cccc(O)c3C=O)C2)c1 [Compound 22, 2-{[(3S)-1-(3-formylbenzoyl)piperidin-3-yl]methoxy}-6-hydroxybenzaldehyde] | 68.5
37 | O=Cc1ccc(C(=O)N2CCC[C@H](COc3cccc(O)c3C=O)C2)cc1 [Compound 23, 2-{[(3S)-1-(4-formylbenzoyl)piperidin-3-yl]methoxy}-6-hydroxybenzaldehyde] | 20
38 | Cc1cccc(C(=O)N2CCCC[C@H]2COc2cccc(O)c2C=O)c1C=O [Compound 34, 2-[(2S)-2-[(2-formyl-3-hydroxyphenoxy)methyl]piperidine-1-carbonyl]-6-methylbenzaldehyde] | 78
